In patent publication US20040048834A1, “Antitumoral compounds” (priority 2000, published 2004):

Assays:
Type in all cases: cell-based
[1] = tested on: Molt 3; experiment: Cytotoxicity MTS, leukemias/lymphomas, Molt 3; conditions: 4-Parameter Curve Fit, NA = not active, read-out: Cytotoxicity IC50 ALL (Acute lymphobalstic) Molt 3
[2] = tested on: MC116; experiment: Cytotoxicity MTS, leukemias/lymphomas, MC116; conditions: 4-Parameter Curve Fit, NA = not active, read-out: Cytotoxicity IC50 Lymphoma (undifferentiated) MC116
[3] = tested on: 5637; experiment: Cytotoxicity MTS, solid tumors, Bladder 5637; conditions: 4-Parameter Curve Fit, NA = not active
[4] = tested on: FADU; experiment: Cytotoxicity MTS, solid tumors, Pharynx FADU; conditions: 4-Parameter Curve Fit, NA = not active
[5] = tested on: A549; experiment: Cytotoxicity MTS, solid tumors, NSCL A549; conditions: 4-Parameter Curve Fit, NA = not active
[6] = tested on: Hut 78; experiment: Cytotoxicity MTS, leukemias/lymphomas, Hut 78; conditions: 4-Parameter Curve Fit, NA = not active, read-out: Cytotoxicity IC50 Lymphoma (Cutaneous T cell) Hut 78
[7] = tested on: U-937; experiment: Cytotoxicity MTS, leukemias/lymphomas, U-937; conditions: 4-Parameter Curve Fit, NA = not active, read-out: Cytotoxicity IC50 Lymphoma (Histiocytic) U-937
[8] = tested on: RAMOS; experiment: Cytotoxicity MTS, leukemias/lymphomas, RAMOS; conditions: 4-Parameter Curve Fit, NA = not active, read-out: Cytotoxicity IC50 Lymphoma (Burkitts B cell) RAMOS
[9] = tested on: H9; experiment: Cytotoxicity MTS, leukemias/lymphomas, H9; conditions: 4-Parameter Curve Fit, NA = not active, read-out: Cytotoxicity IC50 Lymphoma (T cell) H9
[10] = tested on: 786-O; experiment: Cytotoxicity MTS, solid tumors, Renal 786-O; conditions: 4-Parameter Curve Fit, NA = not active
[11] = tested on: Hs746t; experiment: Cytotoxicity MTS, solid tumors, Gastric Hs746t; conditions: 4-Parameter Curve Fit, NA = not active
[12] = tested on: HT-29; experiment: Cytotoxicity MTS, solid tumors, Colon HT-29; conditions: 4-Parameter Curve Fit, NA = not active
[13] = tested on: MX-1; experiment: Cytotoxicity MTS, solid tumors, Breast MX-1; conditions: 4-Parameter Curve Fit, NA = not active
[14] = tested on: SK-HEP-1; experiment: Cytotoxicity MTS, solid tumors, Liver SK-HEP-1; conditions: 4-Parameter Curve Fit, NA = not active
[15] = tested on: SK-OV-3; experiment: Cytotoxicity MTS, solid tumors, Ovary SK-OV-3; conditions: 4-Parameter Curve Fit, NA = not active
[16] = tested on: OSA-FH; experiment: Cytotoxicity MTS, solid tumors, Osteosarcoma OSA-FH; conditions: 4-Parameter Curve Fit, NA = not active
[17] = tested on: Y-79; experiment: Cytotoxicity MTS, solid tumors, Retinoblastoma Y-79; conditions: 4-Parameter Curve Fit, NA = not active
[18] = tested on: NCI-H187; experiment: Cytotoxicity MTS, solid tumors, SCL NCI-H187; conditions: 4-Parameter Curve Fit, NA = not active
[19] = tested on: PC-3; experiment: Cytotoxicity MTS, solid tumors, Prostate PC-3; conditions: 4-Parameter Curve Fit, NA = not active
[20] = tested on: CHSA; experiment: Cytotoxicity MTS, solid tumors, Chondrosarcoma CHSA; conditions: 4-Parameter Curve Fit, NA = not active
[21] = tested on: PANC-1; experiment: Cytotoxicity MTS, solid tumors, Pancreas PANC-1; conditions: 4-Parameter Curve Fit, NA = not active
[22] = tested on: DU-145; experiment: Cytotoxicity MTS, solid tumors, Prostate DU-145; conditions: 4-Parameter Curve Fit, NA = not active
[23] = tested on: LNCAP; experiment: Cytotoxicity MTS, solid tumors, Prostate LNCAP; conditions: 4-Parameter Curve Fit, NA = not active
[24] = tested on: SW 694; experiment: Cytotoxicity MTS, solid tumors, Fibrosarcoma SW 694; conditions: 4-Parameter Curve Fit, NA = not active
[25] = tested on: Mel-28; experiment: Cytotoxicity MTS, solid tumors, Melanoma Mel-28; conditions: 4-Parameter Curve Fit, NA = not active
[26] = tested on: P388; experiment: Cytotoxicity of spisulosine analogs, P388 (after Berjeron et al); conditions: P388; methodology after Berjeron et al; NA=not active; read-out: Cytotoxicity IC50 P388
[27] = tested on: MEL28; experiment: Cytotoxicity of spisulosine analogs, MEL28 (after Berjeron et al); conditions: MEL28; methodology after Berjeron et al; NA=not active; read-out: Cytotoxicity IC50 MEL28
[28] = tested on: HT29; experiment: Cytotoxicity of spisulosine analogs, HT29 (after Berjeron et al); conditions: HT29; methodology after Berjeron et al; NA=not active; read-out: Cytotoxicity IC50 HT29
[29] = tested on: DU145; experiment: Cytotoxicity of spisulosine analogs, DU145 (after Berjeron et al); conditions: DU145; methodology after Berjeron et al; NA=not active; read-out: Cytotoxicity IC50 DU145
[30] = tested on: A549; experiment: Cytotoxicity of spisulosine analogs, A549 (after Berjeron et al); conditions: A549; methodology after Berjeron et al; NA=not active; read-out: Cytotoxicity IC50 A549

Work on `CCCCCCCCCCCCCCCCCC(O)C(C)N` (stereo not shown) yielded an IC50 [1] of 7.61 µM and an IC50 [2] of 10.9 µM.

For `CCCCCCCCCCCCCC[C@@H](O)[C@H](C)N` [drawing 117], the IC50 [3] was 3.26 µM, the IC50 [4] was 19.6 µM and the IC50 [5] was 49 µM.

With `CCCCCCCCCCCCCCCCC(O)C(C)N` (stereo not shown) the IC50 [6] was 10.6 µM, the IC50 [7] was 0.0298 µM and the IC50 [1] was 1.12 µM. For the same molecule, the IC50 [2] was 8.82 µM.

In the case of `CCCCCCCCCCCCCCC(O)C(C)N` (stereo not shown) [drawing 126], the IC50 [6] is reported as 8.81 µM, the IC50 [1] is reported as 0.00983 µM and the IC50 [2] is reported as 9.58 µM.

With `CCCCCCCCCCCCCCCC(=O)C(N)CC` (stereo not shown) the IC50 [8] was 1.21 µM, the IC50 [1] was 0.581 µM and the IC50 [9] was 5.98 µM.

Molecule `CCCCCCCCCCCCCCC[C@@H](O)[C@H](C)N` [drawing 112] has an IC50 [10] of 0.138 µM, an IC50 [11] of 0.395 µM and an IC50 [12] of 0.128 µM. It also gave an IC50 [13] of 1.95 µM, an IC50 [4] of 0.249 µM and an IC50 [14] of 0.297 µM. It also gave an IC50 [15] of 0.702 µM and an IC50 [5] of 0.0857 µM.

With `CCCCCCCCCCCCCCCCC(=O)[C@H](C)N` [drawing 119] the IC50 [16] was 14.9 µM, the IC50 [3] was 29.9 µM and the IC50 [13] was 14.9 µM.

With `CCCCCCCCCCCCCCCC(=O)[C@H](C)N` [drawing 118] the IC50 [10] was 0.162 µM, the IC50 [17] was 12.1 µM and the IC50 [13] was 2.84 µM. It also gave an IC50 [18] of 3.55 µM.

Work on `CCCCCCCCCCCCCCC(O)C(C)N` (stereo not shown) [drawing 128] yielded an IC50 [1] of 26.1 µM.

`CCCCCCCCCCCCCCCCC[C@@H](O)[C@H](C)N` [drawing 114] gave an IC50 [16] of 8.6 µM, an IC50 [19] of 0.049 µM and an IC50 [20] of 1.58 µM. It also gave an IC50 [21] of 0.722 µM, an IC50 [3] of 6.34 µM and an IC50 [22] of 9.86 µM. It also gave an IC50 [12] of 9.07 µM, an IC50 [4] of 0.0812 µM and an IC50 [23] of 7.69 µM. For the same molecule, the IC50 [18] was 7.17 µM, the IC50 [5] was 9.79 µM and the IC50 [24] was 10.4 µM.

In the case of `CCCCCCCCCCCCCCCCCC(=O)[C@H](C)N` [drawing 131], the IC50 [8] is reported as 1.65 µM, the IC50 [1] is reported as 14.3 µM and the IC50 [9] is reported as 2.59 µM.

Work on `CCCCCCCCCCCCCCC[C@@H](O)[C@@H](N)CF` [drawing 122] yielded an IC50 [19] of 21.8 µM, an IC50 [10] of 3.3 µM and an IC50 [20] of 4.62 µM. For the same molecule, the IC50 [17] was 1.65 µM, the IC50 [3] was 1.45 µM and the IC50 [22] was 0.0495 µM. It also gave an IC50 [11] of 16.2 µM, an IC50 [13] of 4.29 µM and an IC50 [25] of 2.54 µM. The IC50 [4] was 3.96 µM and the IC50 [14] was 15.5 µM.

`CCCCCCCCCCCCCCCC(O)C(N)CC` (stereo not shown) [drawing 127] showed an IC50 [6] of 9.15 µM and an IC50 [1] of 0.0376 µM.

For `CCCCCCCCCCCCCCC[C@@H](O)[C@H](C)N(C)C`, the IC50 [26] was 0.319 µM, the IC50 [27] was 0.319 µM and the IC50 [28] was 0.319 µM. It also gave an IC50 [29] of 0.319 µM and an IC50 [30] of 0.319 µM.
